Assay results as given in patent US20130303497A1, “DEUTERATED 5-HT1A RECEPTOR AGONISTS” (priority 2010, published 2013).
Like-named read-outs stand apart in the source and are kept apart here.

Columns and labels:
human plasma proteins = assay: Plasma protein binding, equilibrium dialysis; format: in vitro ADME; details: for degree of protein binding in human plasma compared to tandospirone: One-way ANOVA with Dunnett's test vs Tandospirone
Experimental: (§1) Human plasma was obtained from Bioreclamation (Lot No. BRH354026). A 96-Well Micro-equilibrium Dialysis Device (HT-Dialysis LLC, Model HTD 96 b) separated by dialysis membrane (MWCO 12-14k, HT Dialysis), was used to study the protein binding. The dialysis membrane strips were soaked in distilled water for 1 hour and then in 20% ethanol in water (v/v) for another 20 minutes. The membrane strips were subsequently rinsed 20 min in pure water before use. The studied compounds were individually spiked into human plasma to a final concentration of 0.2 μM, and pre-incubated for 30 min. Aliquots (150 μL) of phosphate buffer (100 mM sodium phosphate, pH 7.4) and spiked plasma was placed in the receiver and donor compartment, respectively. The dialysis block was sealed and placed in a shaker (150 rpm) for 6 hours at 37° C. Each experiment was performed in triplicates (n=3). Aliquot 50 μL from both the donor sides and receiver sides of the dialysis devise was transferred into new sample preparation plates and mixed with the aliquots with same volume of opposite matrixes (blank buffer to plasma and visa verse). […] Hundred μL of the supernatant was transferred to a new 96-well plate and mixed with 200 μL of Milli-Q water containing 0.1% FA. Drug content was quantified with LC/MS/MS (Sciex API4000).
(§2) Percent bound to plasma is calculated as follows:
(§3) % Bound=100−(100×[Receiver]6h/[Donor]6h.) Equation 2
(§4) Mass recovery of test compound from the HTDialysis after 6 h is calculated as follows:
(§5) % Recovery=100×([Donor]6h+[Receiver]6h)/[Donor]0h Equation 3

[1] = Plasma protein binding, equilibrium dialysis; format: in vitro ADME; details: human plasma dialysed against phosphate buffer, pH 7.4, mass recovery from the dialysis device
Experimental: as §1, §2, §3, §4, §5

in vitro = details: pH 7.4
Experimental: The mixture of compound and microsome was pre-incubated for 30 minutes, initiating the reaction by addition of NADPH regenerating system (1 unit/mL Isocitric dehydrogenase). At time point 0, 5, 15, 30, 45 and 60 minutes the reactions were stopped by addition of 300 μL cold acetonitrile ([…]) containing 100 ng/mL tolbutamide as internal standard (IS). The samples were immediately mixed and centrifuged at 4000 rpm for 20 min. 100 μL supernatant was transferred to a fresh 96-well containing 300 μL HPLC-grade water for quantitative analysis by LC-MS/MS (LC: Shimatzu LC 10 AD; MS/MS detection: Sciex API4000), using positive ion electrospray. Triplicate experiments (n=3) was performed for each compound. A single-exponential curve (Ct=C0*e^−kt) was fitted to the concentration-time data points to calculate the elimination rate constant (k). The following equation 1 was used to calculate the total hepatic intrinsic clearance (CLint): […]

MDR1 (P-gp) = assay: Permeability over MDR1-transfected MDCK cell monolayer; format: in vitro ADME, Canine; details: dog, donor and receiver chamber, MDR1-MDCK monolayer, 2 μM
Experimental: (§6) The ability of molecules to pass a biological membrane, like the gastro-intestinal epithelia and the blood-brain barrier endothelia is essential for orally delivered drugs targeting diseases in the brain. The Madin-Darby Canine Kidney (MDCK) cell line is used as an industry standard to evaluate biomembrane passage properties of drugs. […] Test compounds were diluted with the transport buffer (HBSS+1% BSA) from a 10 mM stock solution to a concentration of 2 μM and applied to the apical (A) or basolateral (B) side of the cell monolayer.
(§7) In addition, the efflux ratio of each compound was also determined.
(§8) The apparent biomembrane permeability coefficient Papp (cm/s) was calculated using the equation:
(§9) Papp=(dCr/dt)×Vr/(A×C0) Equation 4
(§10) Where dCr/dt is the cumulative concentration of compound in the receiver chamber as a function of time (μM/s); Vr is the solution volume in the receiver chamber (0.075 mL on the apical side, 0.25 mL on the basolateral side); A is the surface area for the transport, i.e. 0.084 cm2 for the area of the monolayer; Co is the initial concentration in the donor chamber.
(§11) The efflux ratio was calculated using the equation:
(§12) Efflux Ratio=Papp(BA)/Papp(AB) Equation 5
(§13) Percent recovery was calculated using the equation:
(§14) % Recovery=100×[(Vr×Cr)+(Vd×Cd)]/(Vd×C0) Equation 6
(§15) Where Vd is the volume in the donor chambers (0.075 mL on the apical side, 0.25 mL on the basolateral side); Cd and Cr are the final concentrations of transport compound in donor and receiver chambers, respectively.

[2] = as above; format: in vitro ADME, Canine; details: dog; MDR1-MDCK cell monolayer, 2 μM, 150-minute incubation, apical to basolateral
Experimental: as §6, §7, §8, §9, §10, §11, §12, §13, §14, §15

MDR1-MDCK cell monolayer = assay: as above; format: in vitro ADME, Canine
Experimental: as §6, §7, §8, §9, §10, §11, §12, §13, §14, §15

[3] = molecular target: serotonin 5-HT1A receptor; details: Hamik et al. 1990; read-out: Ki affinity value; cited from earlier work
[4] = test system: serotonin 5-HT1A receptor; details: partial agonist; Tanaka et al. 1995 and Yabuuchi et al. 2004; cited from earlier work
[5] = in humans; Nakashima and Kanemaru 1992; cited from earlier work
plasma proteins = details: Miller et al., 1992; cited from earlier work
[6] = pH 7.4, 0.2 μM, equilibrium dialysis, 37° C., n=3, read-out: Protein binding (%) (converted)

| SMILES | degree of protein binding in human plasma compared to tandospirone (human plasma proteins) | fraction unbound at 6 h, 0.2 μM (human plasma proteins; [6]) | recovery at 6 h, 0.2 μM [1] | CLint scaled at 1 μM (in vitro; human, microsomes) | further results |
| --- | --- | --- | --- | --- | --- |
| [2H]C([2H])(CCCN1C(=O)[C@@H]2[C@@H]3CC[C@@H](C3)[C@@H]2C1=O)N1CCN(c2ncccn2)CC1 [Compound II, (1R,2R,6S,7S)-4-{4-[4-(pyrimidin-2-yl)piperazin-1-yl]-(4,4-^2H2)butyl}-4-azatricyclo[5.2.1.0^2,6]decane-3,5-dione] | statistically significant lower degree of protein binding | 0.42 | 95% | 235 mL/min/kg |  |
| [2H]c1cnc(N2CCN(C([2H])([2H])CCCN3C(=O)[C@@H]4[C@@H]5CC[C@@H](C5)[C@@H]4C3=O)CC2)nc1 [Compound III, (1R,2R,6S,7S)-4-{4-[4-((5-^2H)pyrimidin-2-yl)piperazin-1-yl]-(4,4-^2H2)butyl}-4-azatricyclo[5.2.1.0^2,6]decane-3,5-dione] | statistically significant lower degree of protein binding | 0.51 | 86% | 219 mL/min/kg | recovery at 150 min, 2 μM (MDR1 (P-gp); MDCK-MDR1 cell monolayer): 112%; Papp A→B at 150 min, 2 μM [2]: 35 ×10⁻⁶ cm/s; Papp, A-B compared to tandospirone (MDR1-MDCK cell monolayer; P<0.05, One-way ANOVA with Dunnett's test): statistically significant higher Papp, A-B |
| [2H]C([2H])(CCCN1C(=O)[C@@]2([2H])[C@H]3CC[C@H](C3)[C@@]2([2H])C1=O)N1CCN(c2ncccn2)CC1 [Compound XV, (1R,2R,6S,7S)-4-{4-[4-(pyrimidin-2-yl)piperazin-1-yl]-(4-^2H2)butyl}-(2,6-^2H2)-4-azatricyclo[5.2.1.0^2,6]decane-3,5-dione] |  | 0.38 | 92% | 229 mL/min/kg |  |
| O=C(O)Cc1ccccc1Nc1c(Cl)cccc1Cl [Diclofenac, reference compound] |  |  |  | 90 mL/min/kg |  |
| CC(Cc1ccc(O)cc1)NCC(O)c1cc(O)cc(O)c1 (stereo not drawn) [Fenoterol] |  |  |  |  | recovery at 150 min, 2 μM (MDR1 (P-gp)): 109%; Papp A→B at 150 min, 2 μM [2]: 0.92 ×10⁻⁶ cm/s |
| [2H]c1cnc(N2CCN(C([2H])CCCN3C(=O)[C@@H]4[C@@H]5CC[C@@H](C5)[C@@H]4C3=O)CC2)nc1 (stereo partly drawn) [IX, (1R,2R,6S,7S)-4-{4-[4-((5-^2H)pyrimidin-2-yl)piperazin-1-yl]-(4-^2H)butyl}-4-azatricyclo[5.2.1.0^2,6]decane-3,5-dione] | statistically significant lower degree of protein binding |  |  |  |  |
| CC(C)NCC(O)COc1cccc2ccccc12 (stereo not drawn) [Propranolol] |  |  |  |  | B-A/A-B efflux ratio (MDR1-MDCK cell monolayer; MDR1-MDCK cell monolayer, 2 μM): 62; Papp, A-B (×10^−6 cm/s) (MDR1-MDCK cell monolayer; MDR1-MDCK cell monolayer, 2 μM, 150-minute incubation, apical to basolateral): 15 ×10^−6 cm/s |
| O=C1[C@@H]2[C@@H]3CC[C@@H](C3)[C@@H]2C(=O)N1CCCCN1CCN(c2ncccn2)CC1 [Tandospirone, (1R,2R,6S,7S)-4-{4-[4-(pyrimidin-2-yl)piperazin-1-yl]butyl}-4-azatricyclo[5.2.1.0^2,6]decane-3,5-dione] |  |  |  |  | Ki [3]: 27 ± 5 nM; intrinsic activity [4]: 55-85% |
| O=C1[C@@H]2[C@H]3CC[C@H](C3)[C@@H]2C(=O)N1CCCCN1CCN(c2ncccn2)CC1 [Tandospirone, (1R,2R,6S,7S)-4-{4-[4-(pyrimidin-2-yl)piperazin-1-yl]butyl}-4-azatricyclo[5.2.1.0^2,6]decane-3,5-dione] |  |  | 82% | 282 mL/min/kg | recovery at 150 min, 2 μM (MDR1 (P-gp); MDCK-MDR1 cell monolayer): 107%; Papp A→B at 150 min, 2 μM [2]: 30 ×10⁻⁶ cm/s; Protein binding (%) (human plasma proteins; 0.2 μM, equilibrium dialysis, 37° C., n=3): 70%; fraction unbound at 6 h, 0.2 μM (human plasma proteins; human, pH 7.4, read-out: observed unbound fraction): 0.3; elimination half-life in the systemic circulation [5]: 1 to 2 h; unbound fraction reported in the literature (plasma proteins): 30.4% |
| C[C@]12CC[C@H]3[C@@H](CCC4=CC(=O)CC[C@@]43C)[C@@H]1CC[C@@H]2O [Testosterone, reference compound] |  |  |  |  | CLint scaled at 1 μM (in vitro): 70 mL/min/kg |
| [2H]C1C([2H])[C@@H]2C[C@H]1[C@@H]1C(=O)N(CCCC([2H])([2H])N3CCN(c4ncccn4)CC3)C(=O)[C@@H]12 (stereo partly drawn) [VI, (1R,2R,6S,7S)-4-{4-[4-(pyrimidin-2-yl)piperazin-1-yl]-(4,4-^2H2)butyl}-(8,9-^2H2)-4-azatricyclo[5.2.1.0^2,6]decane-3,5-dione] | statistically significant lower degree of protein binding | 0.43 | 96% | 240 mL/min/kg |  |
| [2H]c1cnc(N2CCN(C([2H])([2H])CCCN3C(=O)[C@@H]4[C@H](C3=O)[C@H]3C[C@@H]4C([2H])C3[2H])CC2)nc1 (stereo partly drawn) [VII, (1R,2R,6S,7S)-4-{4-[4-((5-^2H)pyrimidin-2-yl)piperazin-1-yl]-(4,4-^2H2)butyl}-(8,9-^2H2)-4-azatricyclo[5.2.1.0^2,6]decane-3,5-dione] |  | 0.31 | 94% | 231 mL/min/kg |  |
| [2H]C([2H])(CN1C(=O)[C@@H]2[C@@H]3CC[C@@H](C3)[C@@H]2C1=O)C([2H])([2H])C([2H])([2H])N1CCN(c2ncccn2)CC1 [XVIII, (1R,2R,6S,7S)-4-{4-[4-(pyrimidin-2-yl)piperazin-1-yl]-(2,2,3,3,4,4-^2H6)butyl}-4-azatricyclo[5.2.1.0^2,6]decane-3,5-dione] | statistically significant lower degree of protein binding | 0.47 | 111% | 224 mL/min/kg |  |
